Source: patent US20250228759A1, “ANTI-AGING COSMETIC COMPOSITIONS COMPRISING XANTHOMMATIN” (SEASPIRE, INC., priority 2021, published 2025)

System: NativeSkin® human skin tissues
Experiment: Gene expression assay (Genemarkers Standard Skin Panel, qPCR) in ex vivo skin
Format: cell-based
Settings: 24 hrs, N=4
Method: This study was conducted to determine how different concentrations (0.316 μM-10.0 mM) of xanthommatin influences gene expression in ex vivo NativeSkin® human skin tissues (purchased from Genoskin). NativeSkin® human skin models hold normal skin barrier function, a mature stratum corneum, a functional basal layer and all cell types and skin appendages of in vivo human skin.
Gene expression was assessed using Genemarkers Standard Skin Panel, a qPCR-based gene expression panel which contains 107 target genes potentially relevant in skin biology and 5 endogenous control genes. Gene expression was assessed 24 hrs following application of the test material to the skin tissues.
Formulation design. A gel containing either 0.1% or 0.4% (Table 1) by mass percentage of ammonium xanthommatin (Xa) was prepared. Phase A was initiated by adding 0.3 wt % of carbomer into the water without stirring. Next, the solution was heated to 75° C. with mixing to allow the carbomer to disperse throughout the mixture before ammonium xanthommatin was slowly added and allowed to mix for full dissolution. In a separate reaction vessel, Phase B was created with glycerin (3.5%) and phenoxyethanol (0.95%) and mixed well. Phase B was then added to Phase A. The final phase (Phase C), containing 4% deionized water and 0.4% sodium hydroxide, was added to the main phase for neutralization. The gel was then cooled to room temperature.
Tissue equilibration. Native tissues (Genoskin) were equilibrated overnight at 37° C. with 5% CO2 and ˜95% relative humidity. The following day, the equilibrium medium was removed from each well and replaced with 1.0 mL of maintenance medium.
Treatment Media. Tissues were obtained from the abdomen of a person with Fitzpatrick type 2-3 skin. Genoskin facilities mounted 11 mm biopsies into Nativeskin tissue inserts which were used for genetic analysis 5 days later. N=4 biological replicates per treatment group. For WST-8 (−) control tissue (N=2), 10 μL of Triton X-100 (1%) was applied to the surface of the tissue; two untreated tissues served as the WST-8 control.
Tissue and medium collections. A 2 mm biopsy punch was taken from the center for the WST-8 assay. Remaining tissues were placed in a tube containing RNAlater preservative solutions. Tissues were incubated for 1-2 hrs until RNA was isolated. RNA was isolated using an RNeasy Mini kit (Qiagen) following the manufacturer's instructions. Each sample was vacuum concentrated to at least 200 ng/μL to provide sufficient amount of RNA for cDNA synthesis. RNA concentration and purity were determined using a Nanodrop 2000 spectrophotometer.
cDNA was generated using a High Capacity cDNA Synthesis Kit (Applied Biosystems) and was generated from 2000 ng RNA per sample for OpenArray processing. qPCR data quality and statistical analysis was assessed and performed on the raw data files using ThermoFisher Connect Software (Life Technologies). Statistical analysis was performed using the relative quantitation (RQ) method, where the Cq value of the target gene is normalized to the Cq value of an endogenous control gene (selected from one of GAPDH, GUSB, HPRT1, PPIA, and UBC) to generate the delta Cq values, which were used to normalize variability between the samples.
Statistical analysis. Unpaired t-tests were carried out using the ThermoFisher Connect software.

In the case of `NC(CC(=O)c1cccc2oc3cc(=O)c4[nH]c(C(=O)O)cc(=O)c4c-3nc12)C(=O)O` (stereo not drawn) [ammonium xanthommatin], the “HAS2 (Hyaluronan synthase 2) gene expression, % Change” value (3.16 mM (0.1%) dose group) is reported as 74%, the “HAS2 (Hyaluronan synthase 2) gene expression, FC (linear fold change)” value (3.16 mM (0.1%) dose group) is reported as 1.74 and the “HAS2 (Hyaluronan synthase 2) gene expression, Rq” value (3.16 mM (0.1%) dose group) is reported as 1.74. For the same molecule, the “COL1A1 (collagen) gene expression, % Change” value (10 mM (0.4%) dose group) was 153%, the “COL1A1 (collagen) gene expression, FC (linear fold change)” value (10 mM (0.4%) dose group) was 2.53 and the “COL1A1 (collagen) gene expression, Rq” value (10 mM (0.4%) dose group) was 2.525. The “COL3A1 (collagen) gene expression, % Change” value (10 mM (0.4%) dose group) was 137%, the “COL3A1 (collagen) gene expression, FC (linear fold change)” value (10 mM (0.4%) dose group) was 2.37 and the “COL3A1 (collagen) gene expression, Rq” value (10 mM (0.4%) dose group) was 2.37. The “FOXO3 (subclass of the forkhead family of transcription factors) gene expression, % Change” value (10 mM (0.4%) dose group) was 114%, the “FOXO3 (subclass of the forkhead family of transcription factors) gene expression, FC (linear fold change)” value (10 mM (0.4%) dose group) was 2.14 and the “FOXO3 (subclass of the forkhead family of transcription factors) gene expression, Rq” value (10 mM (0.4%) dose group) was 2.142. The “HSPG2 (Heparan Sulfate Proteoglycan 2) gene expression, % Change” value (10 mM (0.4%) dose group) was 48%, the “HSPG2 (Heparan Sulfate Proteoglycan 2) gene expression, FC (linear fold change)” value (10 mM (0.4%) dose group) was 1.48 and the “HSPG2 (Heparan Sulfate Proteoglycan 2) gene expression, Rq” value (10 mM (0.4%) dose group) was 1.477. For the same molecule, the “IGF1R (insulin-like growth factor 1) gene expression, % Change” value (10 mM (0.4%) dose group) was 26%, the “IGF1R (insulin-like growth factor 1) gene expression, FC (linear fold change)” value (10 mM (0.4%) dose group) was 1.26 and the “IGF1R (insulin-like growth factor 1) gene expression, Rq” value (10 mM (0.4%) dose group) was 1.257. For the same molecule, the “ITGB4 (Integrin alpha-6/beta-4 is a receptor for laminin) gene expression, % Change” value (10 mM (0.4%) dose group) was 58%, the “ITGB4 (Integrin alpha-6/beta-4 is a receptor for laminin) gene expression, FC (linear fold change)” value (10 mM (0.4%) dose group) was 1.58 and the “ITGB4 (Integrin alpha-6/beta-4 is a receptor for laminin) gene expression, Rq” value (10 mM (0.4%) dose group) was 1.582. The “KRT14 (keratin 14) gene expression, % Change” value (10 mM (0.4%) dose group) was 72%, the “KRT14 (keratin 14) gene expression, FC (linear fold change)” value (10 mM (0.4%) dose group) was 1.72 and the “KRT14 (keratin 14) gene expression, Rq” value (10 mM (0.4%) dose group) was 1.721. For the same molecule, the “MFN2 (mitofusin 2) gene expression, % Change” value (10 mM (0.4%) dose group) was 45%, the “MFN2 (mitofusin 2) gene expression, FC (linear fold change)” value (10 mM (0.4%) dose group) was 1.45 and the “MFN2 (mitofusin 2) gene expression, Rq” value (10 mM (0.4%) dose group) was 1.447. For the same molecule, the “POLG1/MDP1 (DNA Polymerase Gamma) gene expression, % Change” value (10 mM (0.4%) dose group) was 71%, the “POLG1/MDP1 (DNA Polymerase Gamma) gene expression, FC (linear fold change)” value (10 mM (0.4%) dose group) was 1.71 and the “POLG1/MDP1 (DNA Polymerase Gamma) gene expression, Rq” value (10 mM (0.4%) dose group) was 1.713. The “ST14 (Suppressor of tumorigenicity 14 protein) gene expression, % Change” value (10 mM (0.4%) dose group) was 39%, the “ST14 (Suppressor of tumorigenicity 14 protein) gene expression, FC (linear fold change)” value (10 mM (0.4%) dose group) was 1.39 and the “ST14 (Suppressor of tumorigenicity 14 protein) gene expression, Rq” value (10 mM (0.4%) dose group) was 1.385.
